In general, IC50 refers to the midpoint of a concentration-inhibition curve. Lower therefore signals higher potency.

Data on ten compounds can be found in publication PMC9865589, “Synthesis and Evaluation of Novel S-alkyl Phthalimide- and S-benzyl-oxadiazole-quinoline Hybrids as Inhibitors of Monoamine Oxidase and Acetylcholinesterase” (Pharmaceuticals, 2022).

Where “and” joins values, the source holds several entries; their conditions need not be identical. Equal entries are not always repeated.

Holding throughout (type): biochemical
In one experiment the target is T1, MAO-A (Homo sapiens, UniProt P21397).
T1 sequence (P21397 1-527): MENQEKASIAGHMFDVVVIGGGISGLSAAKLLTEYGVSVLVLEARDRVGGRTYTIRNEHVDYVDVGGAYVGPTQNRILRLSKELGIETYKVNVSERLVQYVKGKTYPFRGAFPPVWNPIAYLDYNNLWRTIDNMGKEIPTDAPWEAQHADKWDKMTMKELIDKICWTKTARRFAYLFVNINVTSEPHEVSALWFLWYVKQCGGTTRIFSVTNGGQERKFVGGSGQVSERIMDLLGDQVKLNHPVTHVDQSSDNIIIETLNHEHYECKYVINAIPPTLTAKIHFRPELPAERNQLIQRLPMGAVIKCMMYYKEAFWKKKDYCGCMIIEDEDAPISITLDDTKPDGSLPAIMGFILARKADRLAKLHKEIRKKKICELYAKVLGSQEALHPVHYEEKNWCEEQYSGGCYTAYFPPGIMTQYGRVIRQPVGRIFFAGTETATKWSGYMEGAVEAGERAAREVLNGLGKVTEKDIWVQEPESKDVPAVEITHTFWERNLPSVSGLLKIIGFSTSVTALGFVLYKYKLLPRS
Description: Monoamine oxidase A inhibition assay (Amplex red fluorescence). The conditions noted are these: for IC50: average ± SEM, triplicate. The procedure:
(§1) Different test chemicals and substrate concentrations were utilized in the kinetic experiments. Lineweaver-Burk plots were employed to determine the kind of inhibition, and they were used to track how the inhibitor affected Km and Vmax by plotting the reciprocal reaction rate against the reciprocal substrate concentrations.
(§2) According to the previously reported protocol, the synthesized compounds’ action on the monoamine oxidase (MAO-A and MAO-B) enzymes was tested. The enzyme was produced just 15 to 20 min before, at a cold room temperature. […] White 96-well plates were utilized for the test. The assay volume was 100 μL, having 60 μL buffer (pH 7.4) and 10 μL test compound (0.1 mM, 10% DMSO), followed by adding enzyme 10 μL (26 μg of protein for MAO-A and 5.0 μg for MAO-B). For MAO-A and MAO-B, the mixture was incubated for 20 and 15 min, respectively. The mixture was then given 10 μL of the substrate and 10 μL of newly prepared Amplex red. […] The non-linear curve fitting tool PRISM 5.0 (GraphPad, San Diego, CA, USA) was employed to compute IC50 values.

A further experiment deals with T2, MAO-B (Homo sapiens, UniProt P27338).
T2 sequence (P27338 1-520): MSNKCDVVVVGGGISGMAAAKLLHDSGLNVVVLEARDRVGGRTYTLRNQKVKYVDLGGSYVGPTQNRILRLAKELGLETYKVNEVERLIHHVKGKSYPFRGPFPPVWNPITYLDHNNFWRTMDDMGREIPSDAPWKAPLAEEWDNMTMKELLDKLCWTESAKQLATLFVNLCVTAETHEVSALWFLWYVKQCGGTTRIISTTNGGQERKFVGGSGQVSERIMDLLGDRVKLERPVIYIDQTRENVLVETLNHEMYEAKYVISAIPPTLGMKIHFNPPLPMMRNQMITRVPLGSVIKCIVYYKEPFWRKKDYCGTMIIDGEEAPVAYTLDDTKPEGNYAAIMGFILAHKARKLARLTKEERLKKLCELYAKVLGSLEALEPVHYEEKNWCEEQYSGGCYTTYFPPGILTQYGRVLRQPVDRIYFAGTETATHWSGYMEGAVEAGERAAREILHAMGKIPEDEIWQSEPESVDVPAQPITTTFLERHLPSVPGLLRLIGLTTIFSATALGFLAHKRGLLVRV
Description: biochemical. The procedure: as §1, §2

A further experiment concerns the target AChE (Homo sapiens, UniProt P22303). Description: biochemical. As to conditions: for IC50: average ± SEM, triplicate.
Description: as §1
All substances were put through a little modified version of Ellman’s test to gauge the effectiveness of their ability to inhibit acetylcholinesterase (AChE). Released thiocholine reacts with chromogenic reagent 5,5-dithio-bis (2-nitrobenzoic) acid to produce a colorful product […]. At a concentration of 2.5 units/mL, the enzyme solutions were prepared. The assay volume was 100 μL, having 60 μL buffer and 10 μL test compound (0.1 mM, 10% DMSO), pursued by inserting enzyme 10 μL […]. The mixture was incubated for 10 min. 10 μL of the substrate and 10 μL of DTNB were added to the mixture.

Setting [1] is: Lineweaver-Burk plots, Vmax unaffected, Km increased.

Chain of AChE (P22303 32-614): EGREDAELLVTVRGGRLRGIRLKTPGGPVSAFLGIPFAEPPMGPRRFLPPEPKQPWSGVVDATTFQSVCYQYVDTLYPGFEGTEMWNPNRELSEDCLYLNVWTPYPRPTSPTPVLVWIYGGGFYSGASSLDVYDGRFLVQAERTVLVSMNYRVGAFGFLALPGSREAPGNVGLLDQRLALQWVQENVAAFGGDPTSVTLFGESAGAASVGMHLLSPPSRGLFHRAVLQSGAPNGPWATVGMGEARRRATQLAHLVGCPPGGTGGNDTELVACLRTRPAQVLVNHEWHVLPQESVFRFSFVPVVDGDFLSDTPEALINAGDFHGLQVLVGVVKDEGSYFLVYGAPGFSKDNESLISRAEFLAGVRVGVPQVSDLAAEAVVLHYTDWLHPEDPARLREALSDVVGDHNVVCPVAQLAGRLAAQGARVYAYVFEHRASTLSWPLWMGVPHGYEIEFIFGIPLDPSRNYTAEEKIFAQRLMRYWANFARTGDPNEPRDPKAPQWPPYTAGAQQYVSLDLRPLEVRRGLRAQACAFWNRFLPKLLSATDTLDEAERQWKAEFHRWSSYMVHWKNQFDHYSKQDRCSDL

For the compound `O=C1c2ccccc2C(=O)N1CSc1nnc(-c2cc(-c3ccccc3)nc3ccccc23)o1` [Compound 5a, 2-((5-(2-Phenylquinolin-4-yl)-1,3,4-oxadiazol-2-ylthio)methyl)isoindoline-1,3-dione], the “type of inhibition of MAO-A” value at MAO-A (setting [1]) is listed as “pure competitive type of inhibition”. Besides, the 50% inhibitory concentration (IC50) on MAO-A was 0.91 ± 0.15 µM; against MAO-B, 1.59 ± 1.66 µM; against AChE, 1.4 ± 0.45 µM.
`c1ccc(CSc2nnc(-c3cc(-c4ccccc4)nc4ccccc34)o2)cc1` [Compound 6d, 4-(5-(Benzylthio)-1,3,4-oxadiazol-2-yl)-2-phenylquinoline]: the IC50 turned out to be 4.16 ± 1.71 µM against MAO-A, 2.9 ± 1.85 µM against MAO-B and 4.98 ± 1.85 µM against AChE.
In the same order, the values of `FC(F)(F)c1ccccc1CSc1nnc(-c2cc(-c3ccccc3)nc3ccccc23)o1` [Compound 6c, 4-(5-(2-(Trifluoromethyl)benzylthio)-1,3,4-oxadiazol-2-yl)-2-phenylquinoline] are 6.81 ± 2.65 µM, 5.59 ± 3.22 µM and 4.38 ± 1.45 µM.
The matching figures for `O=C1c2ccccc2C(=O)N1CCSc1nnc(-c2cc(-c3ccccc3)nc3ccccc23)o1` [Compound 5b, 2-(2-(5-(2-Phenylquinolin-4-yl)-1,3,4-oxadiazol-2-ylthio)ethyl)isoindoline-1,3-dione]: 1.81 ± 0.38 µM, 2.61 ± 2.48 µM and 2.55 ± 0.96 µM.
Turning to `FC(F)(F)c1ccc(CSc2nnc(-c3cc(-c4ccccc4)nc4ccccc34)o2)cc1` [Compound 6a, 4-(5-(4-(Trifluoromethyl)benzylthio)-1,3,4-oxadiazol-2-yl)-2-phenylquinoline], the IC50 on MAO-A was 1.02 µM and 1.51 µM; on MAO-B it was 3.71 ± 2.88 µM; against AChE, 3.23 ± 0.95 µM.
Consider `O=C1c2ccccc2C(=O)N1CCCSc1nnc(-c2cc(-c3ccccc3)nc3ccccc23)o1` [Compound 5c, 2-(3-(5-(2-Phenylquinolin-4-yl)-1,3,4-oxadiazol-2-ylthio)propyl)isoindoline-1,3-dione], for which the IC50 on MAO-A is 3.31 ± 0.8 µM; on MAO-B, 3.39 ± 0.42 µM; against AChE it was 1.02 ± 0.65 µM. Also, on AChE (setting [1]), the “type of inhibition of AChE” value is reported as “pure competitive type of inhibition”.
Consider `O=C1c2ccccc2C(=O)N1CCCCCCSc1nnc(-c2cc(-c3ccccc3)nc3ccccc23)o1` [Compound 5f, 2-(6-(5-(2-Phenylquinolin-4-yl)-1,3,4-oxadiazol-2-ylthio)hexyl)isoindoline-1,3-dione], for which the concentration for half-maximal inhibition (IC50) against MAO-A worked out at 4.88 ± 1.75 µM; against MAO-B, 0.84 ± 0.06 µM; against AChE it was 3.32 ± 0.45 µM. Further, the “type of inhibition of MAO-B” value at MAO-B (setting [1]) is “pure competitive type of inhibition”.
As for `FC(F)(F)c1cccc(CSc2nnc(-c3cc(-c4ccccc4)nc4ccccc34)o2)c1` [Compound 6b, 4-(5-(3-(Trifluoromethyl)benzylthio)-1,3,4-oxadiazol-2-yl)-2-phenylquinoline], the IC50 was 1.51 µM and 1.02 µM against MAO-A; 2.71 ± 0.88 µM at MAO-B; 3.54 ± 1.05 µM against AChE.
`O=C1c2ccccc2C(=O)N1CCCCSc1nnc(-c2cc(-c3ccccc3)nc3ccccc23)o1` [Compound 5d, 2-(4-(5-(2-Phenylquinolin-4-yl)-1,3,4-oxadiazol-2-ylthio)butyl)isoindoline-1,3-dione]: the 50% inhibitory concentration (IC50) against MAO-A was found to be 3.18 ± 1.23 µM; on MAO-B, 3.76 ± 1.04 µM; on AChE it was 2.38 ± 0.92 µM.
In the same order, the values of `O=C1c2ccccc2C(=O)N1CCCCCSc1nnc(-c2cc(-c3ccccc3)nc3ccccc23)o1` [Compound 5e, 2-(5-(5-(2-Phenylquinolin-4-yl)-1,3,4-oxadiazol-2-ylthio)pentyl)isoindoline-1,3-dione] are 4.14 ± 0.35 µM, 3.84 ± 0.91 µM and 1.29 ± 0.75 µM.
